Measured values from publication PMC9519446, “Discovery of an Orally Active Benzoxaborole Prodrug Effective in the Treatment of Chagas Disease in Non-human Primates” (Nature microbiology, 2022).
Where “and” joins values, the source holds several entries; their conditions need not be identical. Equal entries are not always repeated. Entries after “also recorded” stand apart in the source; their conditions may differ. Marks after values point to notes of the source that are not given here.

Assays:
[1] = system: TcCBP KO T. cruzi extracellular amastigotes; assay: Extracellular amastigote assay with serine carboxypeptidase knockout T. cruzi; format: cell-based, Trypanosoma cruzi; conditions: for % of maximum: Fig 2.c, TcCBP KO
Experimental: (§1) The in vitro anti-T. cruzi amastiogote activity assay was performed and optimized based on the protocol described previously. The change in tdTomato fluorescence intensity was determined as a measurement of growth over 72 hours of culture. For assaying drug effects on extracellular amastigotes, trypomastigotes were collected from infected Vero cell cultures and converted in acidic media as previously described. Amastigotes (50,000/well) were incubated with 2-fold serial dilutions of compounds for 48 hours. The ATP production was used as an indication of growth in this case, and was measured by ATPlite Luminescence ATP Detection Assay System (PerkinElmer). Both fluorescence and luminescence were read using a BioTek Synergy Hybrid Multi-Mode reader equipped with the software Gene5 v 2.0 (BioTek). The dose-response curve was generated by […] analysis with GraphPad Prism v9.4.0 (GraphPad Software).
The CBPs knockout was produced using ribonucleoprotein (RNP) complexes as previously described. Briefly, Brazil tdTomato strain epimastigotes were electroporated with RNP complexes containing SaCas9 and an sgRNA targeting CBP gene TcBrA4_0048170, plus a repair template containing stop codons in all three reading frames and the M13 sequence for use as a PCR anchor. The sgRNA targeted the ‘[…]” sequence. After 2 days of recovery, single-cell clones were derived by depositing epimastigotes into a 96-well plate at a density of 0.5 cell/well by using a MoFlo Astrios EQ cell sorter (Beckman Coulter). DNA isolation was performed for clones, and primer pair of 5’-[…]-3’ and 5’- […] -3’ was used for amplifying the wild type allele, while primer pair of M13-F: 5’- […] -3’ and 5’- […] -3’ was used for amplifying the mutant allele.

[2] = system: T. cruzi of diverse genetic types (DTUs); assay: In vitro susceptibility of T. cruzi strains of diverse genetic types (DTUs); format: cell-based; conditions: Trypanosoma cruzi
Experimental: C57BL/6J mice were purchased from The Jackson Laboratory (Bar Harbor, ME), and B6.129S7-Ifngtm1Ts/J (IFN-gamma deficient) were bred in-house at the University of Georgia Animal Facility. The SKH-1 “hairless” mice backcrossed to C57BL/6 were a gift from Dr. Lisa DeLouise (University of Rochester). All the animals were maintained in the University of Georgia Animal Facility under specific pathogen–free conditions at 22°C, 50% humidity and in a 12:12 hs light:dark cycle. Male and female mice of 6 to 9 weeks of age were used. All mouse experiments were carried out in strict accordance with the Public Health Service Policy on Humane Care and Use of Laboratory Animals and Association for Assessment and Accreditation of Laboratory Animal Care accreditation guidelines. The protocol was approved by the University of Georgia Institutional Animal Care and Use Committee. […] Parasites genotypes were determined as previously described.
as §1

[3] = NHP necropsy histology (lesions that could be consistent with Chagas); format: in vivo, rhesus macaques (Macaca mulatta); set-up: key to Skel mm, lesion grade / Small Int, lesion grade / Large Int, lesion grade / Heart, lesion grade: 0 (unlikely Chagas-related pathology); 5 (likely Chagas-related pathology); conditions: individual treated macaques T1-T9 at necropsy
Experimental: Under light-anesthesia/sedation, peripheral blood samples were collected from each animal prior to treatment and at 7 time points following. Blood analysis (CBC and serum chemistry assays) and physical exams to evaluate the health of the study animals were performed on each animal prior to the beginning of the study and also at three time points during the treatment protocol (see Supplementary data).

[4] = system: wild-type and peptidase knockout T. cruzi epimastigotes and amastigotes; assay: LC-MS/MS analysis of intracellular AN15368 and AN14667 (uptake and conversion); format: cell-based, Trypanosoma cruzi; conditions: epimastigotes 10 uM, amastigotes 50 nM; WT vs CBP KO
Experimental: The cells were then pelleted and resuspended in 100 μL of PBS. The cell suspension was mixed with 200 μl of acetonitrile and centrifuged at 735 gfor 10 minutes at room temperature. After extraction, the supernatant was further diluted with methanol:water 30:70 (v/v) containing 0.4 nM internal standard (IS) AN14817 to a concentration within the calibration range. Each sample was diluted in triplicate to provide technical replicates and the diluted sample (10 μL) was injected for subsequent LC-MS/MS analysis.
LC-MS/MS analysis was performed on a Waters ACQUITY I-Class UPLC system coupled to a Xevo TQ-S triple quadrupole mass spectrometer. An ACQUITY UPLC BEH C18 column (130 Å, 1.7 μm, 2.1 mm x 50 mm) was used for chromatographic separation, and the column temperature was 40 °C. The mobile phase consisted of water (A) and methanol (B), both containing 0.1% (v/v) formic acid. The following gradient elution was performed at a flow rate of 0.4 mL/min: 0 – 0.5 min, 30% B; 0.5 – 3 min, 30 – 95% B; 3 – 4 min, 95% B; 4 – 4.1 min, 95 – 30% B; and 4.1 – 5 min, 30% B. The MS ionization was carried out in the positive electrospray ionization (ESI) mode with following conditions: capillary voltage = 1.50 kV; desolvation temperature = 500 °C; desolvation gas flow = 1000 L/h; and nebulizer gas pressure = 7.0 bar. […] Data were processed using TargetLynx v4.1 software (Waters).

[5] = High dose 7-day toxicology study with exposure
[6] = system: Luciferase expressing T. cruzi (Colombiana strain); assay: Low dose short treatment (whole body bioluminescence); format: in vivo, Hairless mice (SKH-1)
From the text: Bioluminiscence signal of the whole body was measure after D-luciferin injection in a Lumina II IVIS in vivo imager equipped with the Living Imaging 4.0 software (PerkinElmer).

## Cc1c(C(=O)NC(C(=O)OCc2ccc(F)c(F)c2)C(C)C)ccc2c1B(O)OC2 (centres unmarked) [AN14353]
[1]; 0.00
  % of maximum: 11% and 2% and 8%
[1]; 0.30
  % of maximum: 1% and -4% and 3%
[1]; -0.30
  % of maximum: 1% and 9%
[1]; -0.60
  % of maximum: 14% and 11% and 5%
[1]; -0.90
  % of maximum: 20% and 18% and 16%
[1]; -1.20
  % of maximum: 31% and 40% and 33%
[1]; -1.51
  % of maximum: 54% and 51% and 59%
[1]; -1.81
  % of maximum: 101% and 104% and 95%
[1]; -2.11
  % of maximum: 106% and 104% and 96%
[1]; -2.41
  % of maximum: 101% and 104%
[1]; -2.71
  % of maximum: 100% and 102%
[1]; Trypanosoma cruzi, read-out: TcCBP KO IC50
  IC50: 44.4 nM
[2]; Strain 20290, DTU TcI
  IC50: 3 nM
  IC90: 5 nM
[2]; Strain 20392, DTU TcIV
  IC50: 5 nM
  IC90: 10 nM
[2]; Strain ARC0704, DTU TcI
  IC50: 3 nM
  IC90: 7 nM
[2]; Strain CL, DTU TcVI
  IC50: 6 nM
  IC90: 18 nM
[2]; Strain Colombiana, DTU TcI
  IC50: 7 nM
  IC90: 10 nM
[2]; Strain M5631, DTU TcIII
  IC50: 1 nM
  IC90: 3 nM
[2]; Strain Montalvania, DTU TcI
  IC50: 1 nM
  IC90: 2 nM
[2]; Strain Tul8, DTU TcII
  IC50: 1 nM
  IC90: 2 nM

## Cc1c(C(=O)N[C@H](C(=O)OCC2CCOCC2)C(C)C)ccc2c1B(O)OC2 [AN15368]
[3]
  Heart, lesion grade: 1* and 0 and 2* and 3*
  Histology Comments: Heart- mutifocal areas of mild epicarditis; also recorded: No overt pathology identified; also recorded: Sk mm- mild focal area of neutrophilic and lymphocytic inflammation Small int- prominent villar tip necrosis/apoptosis, multifocal Lrg Int- focal area of mild lymphohistiocytic inflammation in muscularis; also recorded: Heart- Multifocal areas of mild lymphohistiocytic inflammation/myofiber loss; regional area of mild-moderate myocardial fibrosis; intravascular bacterial or fungal thrombus. Heart lesions are likely related to thromus/infection but Chagas can't be ruled out; also recorded: Sk mm- Multifocal areas of mild lymphohistiocytic inflammation and myofiber loss; Lrg Int- Mild diffsue lymphoplasmactic colitis; focal area of mild lymphohistiocytic inflammation in muscularis; also recorded: Heart - multiple foci of mild lymphoctic inflammation Sk mm-one section has acute myofiber degeneration (ketamine artifact) Small int- prominent villar tip necrosis/apoptosis, multifocal; also recorded: Heart- multifocal areas of mild to moderate myocardial, subepicardial, and perivascular lymphohistiocytic and plasmacytic inflammation; regional area of mild-moderate myocardial fibrosis
  Large Int, lesion grade: 0 and 1*
  Skel mm, lesion grade: 0 and 1* and 2*
  Small Int, lesion grade: 0
[4]
  accumulation and conversion to cleaved product AN14667: conversion to the cleaved product in wild-type T. cruzi epimastigotes and amastigotes but not in the KO line
[5]; 7-day toxicology studies / rats
  dose proportionality of exposure: good dose proportional exposure
[5]; humans
  NOAEL dose translated by allometric scaling: 19.4 mg/kg
[5]; monkeys
  NOAEL dose translated by allometric scaling: 60.5 mg/kg
[5]; rat, in vivo, 120 mg/kg/day, Total plasma exposure (AUC0-24 h), rats, 120 mg/kg/day (NOAEL dose)
  AUC(0-t): 30 µg·h/mL
[5]; rat, in vivo, 600 mg/kg
  AUC: 256 µg·h/mL
[5]; rat, in vivo, oral
  NOAEL at 7 days: 120 mg/kg
[5]; rats
  microscopic findings: observed microscopically in liver (dose dependent), kidney
[5]; rats, 120 mg/kg/day or lower
  effects on hematology and clinical chemistry: none
[5]; rats, 150 mg/kg
  effects on hematology and clinical chemistry: modest effects
[5]; rats, between the first and seventh days of the study
  drug accumulation: no evidence of drug accumulation
[6]; AN15368_2.5mg, 19 dpi
  Bioluminiscence signals of mice: 29400000 and 22400000 and 35610000 and 24370000
[6]; AN15368_5mg, 15 dpi
  Bioluminiscence signals of mice: 8923000 and 11990000
[6]; AN15368_5mg, 19 dpi
  Bioluminiscence signals of mice: 2040000
